From PubChem BioAssay (NCI)
Values joined by “and” are separate entries in the source; they are usually repeats but may differ in a detail not shown here. Equal entries are not always repeated.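 Briefly, cells in 96-well plates were exposed to five compound concentrations for 48 h, and endpoints were estimated by linear interpolation. GI50 is the concentration that inhibits growth by half. The concentration for full growth arrest is given as TGI.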

Experiments:
Assay in all cases: NCI anticancer screen, dose series, 48 h
NCI-H460 lung = tested on: NCI-H460 lung
SNB-19 CNS = tested on: SNB-19 CNS
NCI-H23 lung = tested on: NCI-H23 lung
SK-MEL-2 melanoma = tested on: SK-MEL-2 melanoma
HT29 colon = tested on: HT29 colon
HOP-92 NSCLC = tested on: HOP-92 NSCLC
786-0 renal = tested on: 786-0 renal
A549 NSCLC = tested on: A549 NSCLC
M14 melanoma = tested on: M14 melanoma

SMILES	TGI (NCI-H460 lung)	TGI (SNB-19 CNS)	TGI (NCI-H23 lung)	TGI (SK-MEL-2 melanoma)	TGI (HT29 colon)	TGI (HOP-92 NSCLC)	TGI (786-0 renal)	TGI (A549 NSCLC)	TGI (M14 melanoma)	GI50 (NCI-H460 lung)	GI50 (SNB-19 CNS)	GI50 (NCI-H23 lung)	GI50 (SK-MEL-2 melanoma)	GI50 (HT29 colon)	GI50 (HOP-92 NSCLC)	GI50 (786-0 renal)	GI50 (A549 NSCLC)	GI50 (M14 melanoma)
CC(=O)c1c(O)c(C)c(O)c(Cc2c(O)c3c(c(C(=O)/C=C/c4ccccc4)c2O)OC(C)(C)C=C3)c1O	16.4 µM	19.4 µM	14 µM	4.09 µM	13.1 µM	6.08 µM	18.7 µM	5.13 µM	18.4 µM									
N=C1C(O)C2(I)c3ccccc3N3C(=N)C(O)C4c5ccccc5N1C4C32 (stereo not drawn)	> 100 µM	> 100 µM	> 100 µM	> 100 µM	> 100 µM	> 100 µM	> 100 µM	> 100 µM	> 100 µM									
Cn1ncc(-c2ccc3c(=O)[nH]nc(CN)c3c2)c1-c1c(F)c(Cl)cc(OC2CC2)c1C#N	28.8 µM and 26.7 µM	31.7 µM and 29.5 µM	32 µM and 29.6 µM	29.1 µM and 26.8 µM	29.6 µM and 22.7 µM	31.1 µM and 25.5 µM	29.5 µM and 26 µM	33.9 µM and 32.2 µM	28.9 µM and 27.5 µM	13.6 µM and 12.4 µM	15.3 µM and 14.6 µM	15.3 µM and 14.3 µM	15.3 µM and 13.6 µM	11.6 µM and 10.3 µM	12.9 µM and 10.1 µM	13.4 µM and 12.3 µM	15.8 µM and 15.4 µM	14.2 µM and 13.4 µM
Cc1c2cnccc2c(C)c2c1c1cc(C#N)ccc1n2C	0.427 µM	1.94 µM	0.649 µM	0.771 µM	1.05 µM	0.708 µM	1.3 µM	0.895 µM	0.654 µM	0.124 µM	0.181 µM	0.172 µM	0.256 µM	0.0871 µM	0.18 µM	0.235 µM	0.1 µM	0.232 µM
CC(=O)Nc1ccc(-c2cc(C(=O)O)c3cc4ccccc4cc3n2)cc1	> 100 µM	> 100 µM	> 100 µM	> 100 µM	> 100 µM	> 100 µM	> 100 µM	> 100 µM	> 100 µM									
Cc1ccc2cnc(N)c(C#Cc3cc(C(=O)Nc4ccc(CN5CCN(C)CC5)c(C(F)(F)F)c4)cnc3C)c2c1	1.34 µM	1.89 µM	1.82 µM	1.73 µM	0.776 µM	1.64 µM	1.68 µM		1.16 µM	0.604 µM	0.891 µM	0.727 µM	0.761 µM	0.139 µM	0.217 µM	0.809 µM		0.334 µM
O=S(=O)(/N=c1\scc(-c2ccccc2)n1-c1ccccc1)c1ccc(N2N=C3c4ccccc4CC3C2c2ccc(Cl)cc2)cc1 (stereo not drawn)	> 100 µM	> 100 µM	51.3 µM	> 100 µM	> 100 µM	> 100 µM	> 100 µM	> 100 µM	> 100 µM	> 100 µM	78.8 µM	21 µM	36 µM	44 µM	38.6 µM	32.7 µM	31.4 µM	> 100 µM
Oc1cccc(Nc2nc3ccccc3c3occc23)c1	20.2 µM	22.2 µM		27.7 µM		21.3 µM	21.4 µM	22.8 µM	28.2 µM	6.13 µM	10.5 µM		13.2 µM		9.07 µM	9.73 µM	10.9 µM	14.9 µM
CC(=O)c1c(C(F)(F)F)n([O-])c2ccccc2[n+]1=O	10.8 µM	18.5 µM	2.43 µM	> 100 µM	8.3 µM	4.35 µM	15.3 µM	14.3 µM	7.47 µM	0.857 µM	4.77 µM	1 µM	4.56 µM	1.3 µM	1.22 µM	2.86 µM	2.28 µM	1.63 µM
C/C(=N/O)c1cccc(Nc2cc(-n3nnc4ccccc43)nc3ccccc23)c1	46.7 µM	> 100 µM	35.5 µM	> 63.2 µM	> 100 µM		31.3 µM	> 72.9 µM	20.3 µM	14.7 µM	25.7 µM	15.7 µM	28 µM	12.3 µM		4.84 µM	13.3 µM	7.48 µM
Cc1cc2c(C)nn(Cc3ccccc3)c2c(C(=O)O)c1C		> 100 µM	> 100 µM	> 100 µM		> 100 µM	> 100 µM	> 100 µM										
O=C(Oc1cccnc1)c1cccnc1Nc1ccnc(C(F)(F)F)c1	> 100 µM	> 100 µM	> 100 µM	62 µM	> 100 µM	> 100 µM	22.4 µM	> 100 µM		40.4 µM	48.9 µM	6.38 µM	5.7 µM	30.8 µM	> 100 µM	5.17 µM	> 100 µM	
c1ccc(C2ONC3=NCCN32)cc1 (stereo not drawn)	> 100 µM	> 100 µM	> 100 µM	> 100 µM	> 100 µM		68 µM	> 100 µM	> 100 µM	44.9 µM	> 100 µM	66.2 µM	> 100 µM	67.9 µM		13.3 µM	51.1 µM	> 100 µM
COc1cccc(-c2nc3cc(NC(=O)c4ccc(Cl)c(C#N)c4)ccc3o2)c1	4.91 µM	> 100 µM	4.15 µM	74.2 µM		8.56 µM	3.33 µM	3.8 µM		2.12 µM	3.18 µM	1.69 µM	9.21 µM		3.01 µM	1.74 µM	1.88 µM	
CO/N=C(\COc1ccc2c(c1)[nH]c1ccccc12)c1ccc(OC)cc1	> 100 µM	> 100 µM	> 100 µM		> 100 µM	> 100 µM	> 100 µM	25.2 µM	> 100 µM	21.8 µM	24.4 µM	32.2 µM		4.36 µM	11.9 µM	7.18 µM	5.29 µM	> 100 µM
CNC(=S)Nc1ccc(OC)c2ccccc12		> 10 µM	> 10 µM		> 10 µM	> 10 µM	> 10 µM	> 10 µM	> 10 µM									
C=CCc1c(Cl)nc(Cl)nc1Cl	3.55 µM	2.21 µM	1.81 µM		0.805 µM	0.749 µM	0.368 µM	5.91 µM	0.0714 µM									
